Reference: US20240262863A1, “PEPTIDE FRAGMENT AND USE THEREOF” (TOAGOSEI CO., LTD., priority 2021, published 2024)
FAM = 5(6)-carboxyfluorescein

Test system: HeLa cells
Test: Evaluation of cell membrane penetrating ability of FAM-labelled constructs by flow cytometry
Format: cell-based, human
Conditions: for MFI (mean fluorescent intensity): 10 μM in culture solution, 0.5% DMSO, 20 h incubation at 37° C., flow cytometer detector FL2; for MFI value compared to Example 2: 10 μM, 20 h incubation
Experimental: The cell membrane penetrating ability of samples 1 to 3 was evaluated using HeLa cells (an established cell line derived from human cervical cancer cells) as eukaryotic cells. […] In addition, “FAM” in Table 2 indicates the abovementioned fluorescent dye.
HeLa cells were cultured in DMEM (Dulbecco's modified Eagle's medium, manufactured by Fuji Film Wako Pure Chemical Industries, Cat. No. 043-30085) containing 10% FBS (fetal bovine serum), which is an ordinary culture medium.
HeLa cells adhering to the culture plate were washed with PBS, 0.25% trypsin/EDTA solution was added, and the cells were incubated for 3 min at 37° C. After incubation, the same DMEM medium including 10% FBS was added to deactivate the trypsin, and the cells were then precipitated by centrifugation for 5 min at 150×g. The supernatant produced by centrifugation was removed, and the same DMEM including 10% FBS was added to the precipitate (cell pellet) to prepare an approximately 1×10^5 cells/mL cell suspension. A total of 2 mL of the cell suspension was added to the wells of a commercial 6-hole (well) plate (AGC Techno Glass Co., Ltd) to seed the cells (at approximately 2×10^5 cells/well). Subsequent culturing for 3 h at 37° C. under conditions of 5% CO2 caused the cells to adhere to the bottom of the wells.
Next, the above 2 mM sample solution 1 was diluted with DMEM including 10% FBS to prepare a sample solution 1 in which the concentration of Sample 1 was 20 μM. A total of 1 mL of the culture supernatant was removed from the wells after the 3 h of culture, and 1 mL of the 20 μM sample solution 1 was added to the wells (that is, the concentration of Sample 1 in the culture solution in the wells was made 10 μM and the DMSO concentration was made 0.5%). The cells were then incubated for 20 h at 37° C. under conditions of 5% CO2. After such 20-h incubation, the culture supernatant was removed from the wells, and the cells in the wells were washed twice with 1 mL of PBS. A total of 200 μL of 0.25% trypsin/EDTA solution was then added to the wells, and the cells were incubated for 3 min at 37° C. After this incubation, 400 μL of the above DMEM containing 10% FBS was added to the wells to deactivate the trypsin, the cell suspension in the well was thereafter transferred to a tube, and the cells were collected. A total of 600 μL of PBS was then added to the wells to wash the wells. The PBS in the wells was then transferred to the above tube to collect the cells remaining in the wells in the tube. This tube was centrifuged for 5 min under conditions of 210×g at 4° C. After centrifugation the supernatant was removed, and the precipitate (cell pellet) was suspended (washed) in 1 mL of PBS and centrifuged under the same conditions as described above. This operation was repeated twice, and the supernatant was thereafter removed to obtain cells (a cell pellet) that had been cultured in medium including Sample 1.
The cell penetrating ability of Sample 1 was analyzed by using flow cytometry with respect to the cells (cell pellet) obtained above. An On-chip Flow cytometer (manufactured by On-chip Biotechnologies Co., Ltd.) was used as the flow cytometer.
For this analysis, the cell pellet obtained above was suspended in 50 μL of PBS. A total of 50 μL of 2× sample buffer for flow cytometry was further added to this suspension to prepare a cell suspension for analysis.
Gating was performed using the flow cytometer on the basis of forward scatter (FSC) and side scatter (SSC), a gate was set for the cell population under analysis, and fluorescent intensity was measured for the cell population within this gate. Analysis was performed so that the cell population was composed of about 10,000 cells. Fluorescent intensity was measured using the fluorescence detector FL2 (optimal detection wavelength close to 543 nm) of the flow cytometer, which can detect the fluorescent wavelength of FAM. […]

Row | Substance | MFI (mean fluorescent intensity) | MFI value compared to Example 2
1 | FAM-VVRSLVRVVRSLVR-CONH2 ({FAM}-VVRSLVRVVRSLVR-NH2) [Example 3] | 489 | greatly reduced
2 | 5(6)-carboxyfluorescein [Example 4, reference compound] | 14.3 | –
3 | FAM-VVRSLVKVVRSLVK-CONH2 ({FAM}-VVRSLVKVVRSLVK-NH2) [Example 2] | 715 | –
4 | FAM-VVKSLVKVVKSLVK-CONH2 ({FAM}-VVKSLVKVVKSLVK-NH2) [Example 1] | 1591 | more than twice
